According to US12552766B2, “Pesticidally active azole amide compounds” (SYNGENTA CROP PROTECTION AG, priority 2019, dated 2026):

How the values were obtained:
Assay type in all cases: in vivo
[1] = tested on: Diabrotica Balteata (Corn Root Worm); test: Example B1: Diabrotica balteata, spray on maize sprouts; conditions: 96 h, application rate of 200 ppm, L2 larvae, 4 days after infestation, read-out: control in at least one of the two categories (mortality or growth inhibition)
Procedure, shortened: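 Spray test: maize sprouts on agar, aqueous dilutions of 10′000 ppm DMSO stock; after drying, 6–10 L2 larvae/well. Read-out at 4 d post-infestation: mortality and growth inhibition vs untreated.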

[2] = tested on: Plutella xylostella (Diamond Back Moth); test: Example B5: Plutella xylostella, artificial diet, 24-well; conditions: 192 h, application rate of 200 ppm, eggs, 8 days after infestation, read-out: control in at least one of the two categories (mortality or growth inhibition)
Procedure: 24-well microtiter plates with artificial diet were treated with aqueous test solutions prepared from 10′000 ppm DMSO stock solutions by pipetting. After drying, Plutella eggs were pipetted through a plastic stencil onto a gel blotting paper and the plate was closed with it. The samples were assessed for mortality and growth inhibition in comparison to untreated samples 8 days after infestation.

[3] = tested on: Euschistus heros (Neotropical Brown Stink Bug); test: Example B2: Euschistus heros, spray on soybean leaves; conditions: 120 h, application rate of 200 ppm, N2 nymphs, 5 days after infestation, read-out: control in at least one of the two categories (mortality or growth inhibition)
Procedure: Soybean leaves on agar in 24-well microtiter plates were sprayed with aqueous test solutions prepared from 10′000 ppm DMSO stock solutions. After drying the leaves were infested with N2 nymphs. The samples were assessed for mortality and growth inhibition in comparison to untreated samples 5 days after infestation.

[4] = tested on: Spodoptera littoralis (Egyptian Cotton Leaf Worm); test: Example B9: Spodoptera littoralis, spray on cotton leaf discs; conditions: foliar, 72 h, application rate of 200 ppm, L1 larvae, 3 days after infestation, read-out: control in at least one of the three categories (mortality, anti-feedant effect, or growth inhibition)
Procedure, shortened: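 Spray application onto agar-supported cotton leaf discs used aqueous solutions derived from 10′000 ppm DMSO stocks. Once dry, discs were infested with five L1 larvae and evaluated after 3 days for mortality, anti-feeding and growth inhibition relative to untreated controls.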

[5] = tested on: Chilo suppressalis (Striped Rice Stemborer); test: Example B4: Chilo suppressalis, artificial diet; conditions: 144 h, application rate of 200 ppm, L2 larvae, 6 days after infestation, read-out: control in at least one of the three categories (mortality, anti-feedant effect, or growth inhibition)
Procedure, shortened: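 First, artificial diet was treated with aqueous solutions prepared from 10'000 ppm DMSO stocks; second, after drying, L2 larvae (6-8/well) were added; third, effects were assessed at 6 days against untreated controls, counting control when any of three categories was higher.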

[6] = tested on: Myzus persicae (Green Peach Aphid); test: Example B12: Myzus persicae, sucrose solution, 96-well; conditions: 120 h, application rate of 50 ppm, 5 days after infestation
Procedure: Test compounds prepared from 10′000 ppm DMSO stock solutions were applied by a liquid handling robot into 96-well microtiter plates and mixed with a sucrose solution. Parafilm was stretched over the 96-well microtiter plate and a plastic stencil with 96 holes was placed onto the plate. Aphids were sieved into the wells directly onto the Parafilm. The infested plates were closed with a gel blotting card and a second plastic stencil and then turned upside down. The samples were assessed for mortality 5 days after infestation.

[7] = tested on: Plutella xylostella (Diamondback Moth); test: Example B13: Plutella xylostella, artificial diet, 96-well; conditions: 216 h, application rate of 500 ppm, eggs/L1 larvae, 9 days after infestation
Procedure: 96-well microtiter plates containing artificial diet were treated with aqueous test solutions, prepared from 10′000 ppm DMSO stock solutions, by a liquid handling robot. After drying, eggs (˜30 per well) were infested onto a netted lid which was suspended above the diet. The eggs hatch and L1 larvae move down to the diet. The samples were assessed for mortality 9 days after infestation.

[8] = tested on: Myzus persicae (Green Peach Aphid); test: Example B6: Myzus persicae, feeding/contact activity; conditions: 144 h, application rate of 200 ppm, mixed ages, 6 days after infestation
Procedure: Sunflower leaf discs were placed onto agar in a 24-well microtiter plate and sprayed with aqueous test solutions prepared from 10′000 ppm DMSO stock solutions. After drying, the leaf discs were infested with an aphid population of mixed ages. The samples were assessed for mortality 6 days after infestation.

CC(NC(=O)c1cc(Cl)cc(C(F)(F)F)c1)c1nc(Br)nn1-c1ccc(OC(F)F)cn1 (centres unmarked) [Compound P26, N-[1-[5-bromo-2-[5-(difluoromethoxy)-2-pyridyl]-1,2,4-triazol-3-yl]ethyl]-3-chloro-5-(trifluoromethyl) benzamide]
≥ 80%: percent control (mortality or growth inhibition) at 200 ppm [1] | percent control (mortality or growth inhibition) at 200 ppm [2] | percent control (mortality or growth inhibition) at 200 ppm [3] | percent control (mortality, anti-feedant effect or growth inhibition) at 200 ppm [4] | percent control (mortality, anti-feedant effect or growth inhibition) at 200 ppm [5]

CC(NC(=O)c1cc(OCC(F)F)cc(C(F)(F)F)c1)c1nc(Br)nn1-c1ncc(OCC(F)F)cn1 (centres unmarked) [Compound P47, N-[1-[5-bromo-2-[5-(2,2-difluoroethoxy)pyrimidin-2-yl]-1,2,4-triazol-3-yl]ethyl]-3-(2,2-difluoroethoxy)-5-(trifluoromethyl) benzamide]
≥ 80%: percent control (mortality or growth inhibition) at 200 ppm [2] | mortality at 50 ppm [6] | mortality at 500 ppm [7] | percent control (mortality, anti-feedant effect or growth inhibition) at 200 ppm [4] | percent control (mortality, anti-feedant effect or growth inhibition) at 200 ppm [5]

CC(NC(=O)c1cc(OC(F)F)cc(C(F)(F)F)c1)c1nc(Br)nn1-c1ncc(OCC(F)F)cn1 (centres unmarked) [Compound P23, N-[1-[5-bromo-2-[5-(2,2-difluoroethoxy)pyrimidin-2-yl]-1,2,4-triazol-3-yl]ethyl]-3-(difluoromethoxy)-5-(trifluoromethyl)be nzamide]
≥ 80%: percent control (mortality or growth inhibition) at 200 ppm [1] | percent control (mortality or growth inhibition) at 200 ppm [2] | mortality at 50 ppm [6] | mortality at 500 ppm [7] | percent control (mortality, anti-feedant effect or growth inhibition) at 200 ppm [4] | percent control (mortality, anti-feedant effect or growth inhibition) at 200 ppm [5]

CC(NC(=O)c1cc(Cl)cc(C(F)(F)F)c1)c1nc(Br)nn1-c1ncc(OCC(F)(F)F)cn1 (centres unmarked) [Compound P43, N-[1-[5-bromo-2-[5-(2,2,2-trifluoroethoxy)pyrimidin-2-yl]-1,2,4-triazol-3-yl]ethyl]-3-chloro-5-(trifluoromethyl) benzamide]
≥ 80%: percent control (mortality or growth inhibition) at 200 ppm [1] | percent control (mortality or growth inhibition) at 200 ppm [2] | mortality at 50 ppm [6] | mortality at 500 ppm [7] | percent control (mortality, anti-feedant effect or growth inhibition) at 200 ppm [4] | percent control (mortality, anti-feedant effect or growth inhibition) at 200 ppm [5]

CC(NC(=O)c1cc(OCC(F)F)cc(C(F)(F)F)c1)c1nc(Br)nn1-c1ccc(OCC(F)(F)F)cn1 (centres unmarked) [Compound P55, N-[1-[5-bromo-2-[5-(2,2,2-trifluoroethoxy)-2-pyridyl]-1,2,4-triazol-3-yl]ethyl]-3-(2,2-difluoroethoxy)-5-(trifluoromethyl) benzamide]
≥ 80%: percent control (mortality or growth inhibition) at 200 ppm [2] | mortality at 200 ppm [8]

CC(NC(=O)c1cc(C(F)F)cc(C(F)(F)F)c1)c1nc(Br)nn1-c1ccc(OCC(F)F)cn1 (centres unmarked) [Compound P52, N-[1-[5-bromo-2-[5-(2,2-difluoroethoxy)-2-pyridyl]-1,2,4-triazol-3-yl]ethyl]-3-(difluoromethyl)-5-(trifluoromethyl) benzamide]
≥ 80%: percent control (mortality or growth inhibition) at 200 ppm [1] | percent control (mortality or growth inhibition) at 200 ppm [2] | percent control (mortality or growth inhibition) at 200 ppm [3] | mortality at 500 ppm [7] | percent control (mortality, anti-feedant effect or growth inhibition) at 200 ppm [4] | percent control (mortality, anti-feedant effect or growth inhibition) at 200 ppm [5]

CC(NC(=O)c1cc(Br)cc(C(F)(F)F)c1)c1nc(Br)nn1-c1ccc(C#N)cn1 (centres unmarked) [Compound P30, 3-bromo-N-[1-[5-bromo-2-(5-cyano-2-pyridyl)-1,2,4-triazol-3-yl]ethyl]-5-(trifluoromethyl) benzamide]
≥ 80%: percent control (mortality or growth inhibition) at 200 ppm [1] | percent control (mortality or growth inhibition) at 200 ppm [2] | mortality at 500 ppm [7] | percent control (mortality, anti-feedant effect or growth inhibition) at 200 ppm [4] | percent control (mortality, anti-feedant effect or growth inhibition) at 200 ppm [5]

CC(NC(=O)c1cc(Br)cc(C(F)(F)F)c1)c1nc(Br)nn1-c1ccc(OCC(F)F)cn1 (centres unmarked) [Compound P35, 3-bromo-N-[1-[5-bromo-2-[5-(2,2-difluoroethoxy)-2-pyridyl]-1,2,4-triazol-3-yl]ethyl]-5-(trifluoromethyl) benzamide]
≥ 80%: percent control (mortality or growth inhibition) at 200 ppm [1] | percent control (mortality or growth inhibition) at 200 ppm [2] | mortality at 200 ppm [8] | mortality at 500 ppm [7] | percent control (mortality, anti-feedant effect or growth inhibition) at 200 ppm [4] | percent control (mortality, anti-feedant effect or growth inhibition) at 200 ppm [5]

CC(NC(=O)c1cc(OCC(F)(F)F)cc(C(F)(F)F)c1)c1nc(Br)nn1-c1ncc(OCC(F)F)cn1 (centres unmarked) [Compound P19, N-[1-[5-bromo-2-[5-(2,2-difluoroethoxy)pyrimidin-2-yl]-1,2,4-triazol-3-yl]ethyl]-3-(2,2,2-trifluoroethoxy)-5-(trifluoromethyl) benzamide]
≥ 80%: percent control (mortality or growth inhibition) at 200 ppm [1] | percent control (mortality or growth inhibition) at 200 ppm [2] | mortality at 500 ppm [7] | percent control (mortality, anti-feedant effect or growth inhibition) at 200 ppm [4] | percent control (mortality, anti-feedant effect or growth inhibition) at 200 ppm [5]

CC(NC(=O)c1cc(OC(F)F)cc(C(F)(F)F)c1)c1nc(Br)nn1-c1ncc(OCC(F)(F)F)cn1 (centres unmarked) [Compound P45]
≥ 80%: percent control (mortality or growth inhibition) at 200 ppm [1] | percent control (mortality or growth inhibition) at 200 ppm [2] | mortality at 500 ppm [7] | percent control (mortality, anti-feedant effect or growth inhibition) at 200 ppm [4] | percent control (mortality, anti-feedant effect or growth inhibition) at 200 ppm [5]

CC(NC(=O)c1cc(C(F)F)cc(C(F)(F)F)c1)c1nc(Br)nn1-c1ncc(OCC(F)F)cn1 (centres unmarked) [Compound P40, N-[1-[5-bromo-2-[5-(2,2-difluoroethoxy)pyrimidin-2-yl]-1,2,4-triazol-3-yl]ethyl]-3-(difluoromethyl)-5-(trifluoromethyl) benzamide]
≥ 80%: percent control (mortality or growth inhibition) at 200 ppm [1] | percent control (mortality or growth inhibition) at 200 ppm [2] | percent control (mortality or growth inhibition) at 200 ppm [3] | mortality at 500 ppm [7] | percent control (mortality, anti-feedant effect or growth inhibition) at 200 ppm [4] | percent control (mortality, anti-feedant effect or growth inhibition) at 200 ppm [5]

CC(NC(=O)c1cc(OCC(F)(F)F)cc(C(F)(F)F)c1)c1nc(Br)nn1-c1ncc(OCC(F)(F)F)cn1 (centres unmarked) [Compound P46, N-[1-[5-bromo-2-[5-(2,2,2-trifluoroethoxy)pyrimidin-2-yl]-1,2,4-triazol-3-yl]ethyl]-3-(2,2,2-trifluoroethoxy)-5-(trifluoromethyl) benzamide]
≥ 80%: percent control (mortality or growth inhibition) at 200 ppm [1] | percent control (mortality or growth inhibition) at 200 ppm [2] | mortality at 500 ppm [7] | percent control (mortality, anti-feedant effect or growth inhibition) at 200 ppm [4] | percent control (mortality, anti-feedant effect or growth inhibition) at 200 ppm [5]
